From patent publication US5856344A, “Sulfonylamino-substituted benzoylguanidines, a process for their preparation, their use as a medicament or diagnostic aid, and medicament containing them” (Hoechst Aktiengesellschaft, priority 1995, dated 1999)
Structures can show the parent of a compound that is named as a salt.

Biological target: T1, Na^+ /H^+ exchanger of rabbit erythrocytes (Oryctolagus cuniculus, UniProt P23791)
T1 construct: endogenous in cells; host or cells: erythrocytes in whole blood of cholesterol-fed White New Zealand rabbits (Ivanovas)
T1 sequence (P23791 whole entry): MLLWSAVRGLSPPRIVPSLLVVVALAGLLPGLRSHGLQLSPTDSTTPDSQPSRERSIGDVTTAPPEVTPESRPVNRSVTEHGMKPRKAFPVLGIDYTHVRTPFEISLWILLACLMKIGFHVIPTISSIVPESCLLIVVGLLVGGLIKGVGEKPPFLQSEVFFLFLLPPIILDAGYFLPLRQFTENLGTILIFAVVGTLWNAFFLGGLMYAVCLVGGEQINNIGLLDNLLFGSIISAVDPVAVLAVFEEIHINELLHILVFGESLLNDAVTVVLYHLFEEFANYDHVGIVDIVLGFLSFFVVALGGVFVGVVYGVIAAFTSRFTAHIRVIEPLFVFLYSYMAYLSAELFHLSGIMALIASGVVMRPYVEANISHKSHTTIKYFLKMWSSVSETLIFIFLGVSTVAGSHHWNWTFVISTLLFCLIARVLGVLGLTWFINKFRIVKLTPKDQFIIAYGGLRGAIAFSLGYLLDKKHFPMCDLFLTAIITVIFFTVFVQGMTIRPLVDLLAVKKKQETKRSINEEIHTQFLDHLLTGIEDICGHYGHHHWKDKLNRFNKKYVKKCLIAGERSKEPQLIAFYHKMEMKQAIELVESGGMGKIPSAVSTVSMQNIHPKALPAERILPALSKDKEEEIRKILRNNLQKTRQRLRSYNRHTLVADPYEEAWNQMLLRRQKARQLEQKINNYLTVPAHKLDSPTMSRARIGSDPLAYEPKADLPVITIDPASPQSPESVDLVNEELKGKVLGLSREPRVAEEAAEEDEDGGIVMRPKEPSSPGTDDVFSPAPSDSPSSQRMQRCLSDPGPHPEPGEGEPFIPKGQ
Assay: Inhibition of the Na+/H+ exchanger of rabbit erythrocytes (amiloride-sensitive sodium influx, flame photometry)
Assay type: cell-based, rabbit (White New Zealand)
Details: hyperosmolar salt/sucrose medium, pH 7.4, 37° C.
Text: Inhibition of the Na^+ /H^+ exchanger of rabbit erythrocytes White New Zealand rabbits (Ivanovas) received a standard diet containing 2% cholesterol for six weeks in order to activate Na^+ /H^+ exchange and thus to make it possible to determine the Na^+ influx into the erythrocytes via Na^+ /H^+ exchange by flame photometry. The blood was taken from the arteries of the ear and anticoagulated with 25 IU of potassium heparin. Part of each sample was used for duplicate determination of the hematocrit by centrifugation. Aliquots each of 100 μl were used to measure the Na^+ content of the erythrocytes.
In order to determine the amiloride-sensitive sodium influx, 100 μl of each blood sample were incubated in each case in 5 ml of a hyperosmolar salt/sucrose medium (mmol/l: 140 NaCl, 3 KCl, 150 sucrose, 0.1 ouabain, 20 trishydroxymethylaminomethane) at pH 7.4 and 37° C. The erythrocytes were then washed three times with ice-cold MgCl2 /ouabain solution (mmol/l: 112 MgCl2, 0.1 ouabain) and hemolyzed in 2.0 ml of distilled water. The intracellular sodium content was determined by flame photometry.
The net Na^+ influx was calculated from the difference between the initial sodium levels and the sodium content of the erythrocytes after incubation. […]

Row | IC50 | Structure (SMILES)
1 | 300 nM | CC(C)c1ccc(C(=O)N=C(N)N)cc1NS(C)(=O)=O [Example 1, 4-Isopropyl-3-methylsulfonylaminobenzoylguanidine, hydrochloride]
2 | 740 nM | CS(=O)(=O)Nc1cc(C(=O)N=C(N)N)ccc1Oc1cccnc1 [Example 2, 3-Methylsulfonylamino-4--(3-pyridyloxy)benzoylguanidine]
